Assay [1] relates to Huh-7. The assay is described as follows: Induction of senescence in human HuH7 cells assessed as increase in senescence associated beta-galactosidase activity at 25 ng/mL after 3 to 6 days by X-GAL based staining method. The class given is functional, cell-based.
Assay [2] relates to Huh-7. The assay is described as follows: Antiproliferative activity in human HuH7 cells assessed as inhibition of BrdU incorporation at 25 ng/mL after 3 to 6 days. The class given is functional, cell-based.
The subject of assay [3] is Huh-7. The assay is described as follows: Cytotoxicity against human HuH7 cells after 72 hrs by SRB assay. The format is functional, cell-based.
The test system of assay [4] is HepG2. The assay is described as follows: Cytotoxicity against human HepG2 cells after 72 hrs by SRB assay. The format is functional, cell-based.
A further assay relates to HCT-116. The experiment in a line: Cytotoxicity against human HCT116 cells after 72 hrs by SRB assay. The format is functional, cell-based.
The next assay has as its system MCF7. The assay is described as follows: Cytotoxicity against human MCF7 cells after 72 hrs by SRB assay. The class given is functional, cell-based.
The nature of assay [5]: Cytotoxicity against human Mahlavu cells after 72 hrs by SRB assay. The format is functional, cell-based.
A short description of assay [6]: Cytotoxicity against human FOCUS cells after 72 hrs by SRB assay. The class given is functional, cell-based.
Assay [7] has as its system Huh-7. The experiment in a line: Inhibition of protein kinase in human HuH7 cells assessed as increase in ATP level after 72 hrs by Kinase-Glo assay. The class given is cell-based.
The test system of assay [8] is Huh-7. The experiment in a line: Induction of apoptosis in human HuH7 cells assessed as PARP cleavage into 89 kDa and 24 kDa fragments at 7.8 uM after 72 hrs by Western blot analysis. The class given is functional, cell-based.
The test system of assay [9] is HepG2. The assay is described as follows: Induction of apoptosis in human HepG2 cells assessed as PARP cleavage into 89 kDa and 24 kDa fragments at 5.7 uM after 72 hrs by Western blot analysis. The format is functional, cell-based.
In assay [10] the test system is Mahlavu. The assay is described as follows: Induction of apoptosis in human Mahlavu cells assessed as PARP cleavage into 89 kDa and 24 kDa fragments at 9.2 uM after 72 hrs by Western blot analysis. The format is functional, cell-based.
Assay [11] relates to FOCUS. The experiment in a line: Induction of apoptosis in human FOCUS cells assessed as PARP cleavage into 89 kDa and 24 kDa fragments at 5.2 uM after 72 hrs by Western blot analysis. The class given is functional, cell-based.
Assay [12] concerns Huh-7. The assay is described as follows: Induction of necrosis in human HuH7 cells assessed as PARP cleavage into 50 kDa fragment at 7.8 uM after 72 hrs by Western blot analysis. The format is functional, cell-based.
Assay [13] deals with HepG2. The experiment in a line: Induction of necrosis in human HepG2 cells assessed as PARP cleavage into 50 kDa fragment into at 5.7 uM after 72 hrs by Western blot analysis. The format is functional, cell-based.
Assay [14] deals with Mahlavu. The assay is described as follows: Induction of necrosis in human Mahlavu cells assessed as PARP cleavage into 50 kDa fragment at 9.2 uM after 72 hrs by Western blot analysis. The format is functional, cell-based.
Assay [15] relates to FOCUS. The assay is described as follows: Induction of necrosis in human FOCUS cells assessed as PARP cleavage into 50 kDa fragment at 5.2 uM after 72 hrs by Western blot analysis. The class given is functional, cell-based.
In assay [16] the test system is Huh-7. The experiment in a line: Induction of senescence in human HuH7 cells assessed as increase in senescence associated beta-galactosidase activity at cytotoxic IC50 to IC100 concentration after 3 to 6 days by X-GAL based staining method. The class given is functional, cell-based.
Assay [17] has as its system Huh-7. The experiment in a line: Growth inhibition of human HuH7 cells at 5 to 30 uM by real-time cell electronic sensing assay. The format is functional, cell-based. Particulars: TDE = time-dependent effect.
Assay [18] deals with HepG2. The assay is described as follows: Growth inhibition of human HepG2 cells at 5 to 30 uM by real-time cell electronic sensing assay. The class given is functional, cell-based. Particulars: TDE = time-dependent effect.
For assay [19], the system named is Huh-7. The assay is described as follows: Antiproliferative activity in human HuH7 cells assessed as inhibition of BrdU incorporation at cytotoxic IC50 to IC100 concentration after 3 to 6 days. The format is functional, cell-based.
Assay [20] concerns Huh-7. The assay is described as follows: Induction of p15INK4b protein expression in human HuH7 cells assessed as inhibition of cyclinD1/[…]-mediated Rb phosphorylation at cytotoxic IC50 to IC100 concentration after 6 days by Western blot analysis. The format is functional, cell-based.
In assay [21] the test system is Huh-7. The experiment in a line: Induction of p15INK4b protein expression in human HuH7 cells at cytotoxic IC50 to IC100 concentration by Western blot analysis. The format is functional, cell-based. The note with it: TDE = time-dependent effect.
The test system of assay [22] is Huh-7. The experiment in a line: Induction of p15INK4b protein expression in human HuH7 cells after 3 to 6 days by Western blot analysis. The format is functional, cell-based.
Assay [23] has as its system Mahlavu. The assay is described as follows: Growth inhibition of human Mahlavu cells at 5 to 30 uM by real-time cell electronic sensing assay. The format is functional. The note with it: TDE = time-dependent effect.
In assay [24] the test system is FOCUS. The assay is described as follows: Growth inhibition of human FOCUS cells at 5 to 30 uM by real-time cell electronic sensing assay. The format is functional, cell-based. The note with it: TDE = time-dependent effect.
In assay [25] the test system is Huh-7. The assay is described as follows: Growth inhibition of human HuH7 cells measured every 30 mins by real-time cell electronic sensing assay. The format is functional, cell-based.
For assay [26], the system named is HepG2. The assay is described as follows: Growth inhibition of human HepG2 cells measured every 30 mins by real-time cell electronic sensing assay. The class given is functional, cell-based.
Assay [27] has as its system Mahlavu. The experiment in a line: Growth inhibition of human Mahlavu cells measured every 30 mins by real-time cell electronic sensing assay. The format is functional.
Assay [28] concerns FOCUS. The assay is described as follows: Growth inhibition of human FOCUS cells measured every 30 mins by real-time cell electronic sensing assay. The format is functional, cell-based.
Assay [29] has as its system Huh-7. The experiment in a line: Inhibition of protein kinase in human HuH7 cells assessed as increase in ATP level at 5 uM after 72 hrs by Kinase-Glo assay. The format is cell-based.
Where [30] appears, read: Homo sapiens, Huh-7, 72 h, read-out: IC50.
[31] abbreviates: huh-7, TDE = time-dependent effect.
[32] abbreviates: Homo sapiens, HepG2, 72 h, read-out: IC50.
Setting [33] is: hepg2, TDE = time-dependent effect.
The mark [34] stands for this setting: Homo sapiens, HCT-116, 72 h, read-out: IC50.
The mark [35] stands for this setting: hct-116, TDE = time-dependent effect.
[36] abbreviates: Homo sapiens, MCF7, 72 h, read-out: IC50.
Setting [37] is: mcf7, TDE = time-dependent effect.

Molecules are shown by their SMILES. The source made the active and inactive calls. No cut-off for these calls is given here.

Turning to `COc1cccc2c1C(=O)c1c(O)c3c(c(O)c1C2=O)C[C@@](O)(C(=O)CO)C[C@@H]3O[C@H]1C[C@H](N)[C@H](O)[C@H](C)O1`, the outcome with Huh-7 [1] and in the assay with Huh-7 [2] was Active.

As to `OC[C@H]1O[C@@H](n2cnc3c(N4CCN(c5ccc(F)cc5)CC4)ncnc32)[C@H](O)[C@@H]1O`, the IC50 is 49.7 µM in the assay on Huh-7 [3] (setting [30]); “tde” with Huh-7 [3] (setting [31]); more than 100 µM with HepG2 [4] (setting [32]); “tde” in the assay on HepG2 [4] (setting [33]); more than 100 µM in the assay on HCT-116 (setting [34]); “tde” in the assay on HCT-116 (setting [35]). Besides, the IC50 in the assay with MCF7 (setting [36]) was more than 100 µM; with MCF7 (setting [37]) it was “tde”; in [5], more than 100 µM; in assay [6], more than 100 µM.

Regarding `OC[C@H]1O[C@@H](n2cnc3c(N4CCN(c5ccccc5)CC4)ncnc32)[C@H](O)[C@@H]1O`, the IC50 in the assay on Huh-7 [3] (setting [30]) is more than 100 µM; in the assay on Huh-7 [3] (setting [31]), “tde”; in the assay with HepG2 [4] (setting [32]), more than 100 µM; in the assay on HepG2 [4] (setting [33]), “tde”; in the assay on HCT-116 (setting [34]), more than 100 µM; in the assay with HCT-116 (setting [35]), “tde”. Moreover, the IC50 is more than 100 µM with MCF7 (setting [36]), “tde” in the assay with MCF7 (setting [37]), more than 100 µM in [5] and more than 100 µM in assay [6].

On to `O=c1[nH]cc(F)c(=O)[nH]1` [FLUOROURACIL], for which the IC50 in the assay on Huh-7 [3] (setting [30]) amounted to 30.7 µM; in the assay on HepG2 [4] (setting [32]), 5 µM; in the assay with HCT-116 (setting [34]), 6 µM; with MCF7 (setting [36]), 3.5 µM; in [5] it was 10 µM; in assay [6], 7.6 µM.

Consider `CC[C@@]1(O)C(=O)OCc2c1cc1n(c2=O)Cc2cc3ccccc3nc2-1` [CAMPTOTHECIN], for which the IC50 (with Huh-7 [3] (setting [30]); in the assay on HepG2 [4] (setting [32]); with HCT-116 (setting [34]); in the assay with MCF7 (setting [36]); in assay [5]; in assay [6]) was less than 0.1 µM each time.

For the compound `OC[C@H]1O[C@@H](n2cnc3c(N4CCN(c5ccc(C(F)(F)F)cc5)CC4)ncnc32)[C@H](O)[C@@H]1O`, the IC50 was 7.8 µM with Huh-7 [3] (setting [30]); “tde” with Huh-7 [3] (setting [31]); 5.7 µM in the assay with HepG2 [4] (setting [32]); “tde” in the assay with HepG2 [4] (setting [33]); 6.7 µM with HCT-116 (setting [34]); “tde” in the assay with HCT-116 (setting [35]). Further, the IC50 in the assay with MCF7 (setting [36]) is 7.5 µM; in the assay with MCF7 (setting [37]) it was “tde”; in [5], 9.2 µM; in [6] it was 5.2 µM. In the assay with Huh-7 [7], the inhibition result is “Dose-dependent effect”. Moreover, the result with Huh-7 [8], with HepG2 [9], in the assay with Mahlavu [10], in the assay with FOCUS [11], with Huh-7 [12] and in the assay on HepG2 [13] was inactive. The result with Mahlavu [14] and in the assay on FOCUS [15] was inactive. Moreover, the outcome in the assay with Huh-7 [16], with Huh-7 [19] and with Huh-7 [20] was Active. Also, the “growth inhibition (GI)” value in the assay on Huh-7 [17] is “tde”; in the assay on HepG2 [18], “tde”; in the assay on Mahlavu [23] it was “tde”; with FOCUS [24] it was “tde”; with Huh-7 [25] it was “Dose-dependent effect”; with HepG2 [26], “Dose-dependent effect”. Besides, the “growth inhibition (GI)” value in the assay on Mahlavu [27] and with FOCUS [28] was “Dose-dependent effect” each time. The Activity result in the assay on Huh-7 [21] is “tde”; in the assay on Huh-7 [22], “Dose-dependent effect”.

With `OC[C@H]1O[C@@H](n2cnc3c(N4CCN(C(c5ccccc5)c5ccccc5)CC4)ncnc32)[C@H](O)[C@@H]1O`, the IC50 with Huh-7 [3] (setting [30]) was 44.4 µM; in the assay on Huh-7 [3] (setting [31]), “tde”; in the assay on HepG2 [4] (setting [32]), 63.5 µM; with HepG2 [4] (setting [33]), “tde”; in the assay with HCT-116 (setting [34]) it was 48.5 µM; with HCT-116 (setting [35]), “tde”. Also, the IC50 was 40.1 µM with MCF7 (setting [36]), “tde” with MCF7 (setting [37]), 92.7 µM in [5] and more than 100 µM in assay [6].

In the case of `CSC[C@H]1O[C@@H](n2cnc3c(N)ncnc32)[C@H](O)[C@@H]1O`, the inhibition entry with Huh-7 [29] was “Active”.

Regarding `OC[C@H]1O[C@@H](n2cnc3c(N4CCN(c5ccc(Cl)c(Cl)c5)CC4)ncnc32)[C@H](O)[C@@H]1O`, the IC50 is 7.1 µM in the assay with Huh-7 [3] (setting [30]); “tde” with Huh-7 [3] (setting [31]); 6.1 µM in the assay on HepG2 [4] (setting [32]); “tde” in the assay on HepG2 [4] (setting [33]); 8.4 µM with HCT-116 (setting [34]); “tde” with HCT-116 (setting [35]). Also, the IC50 in the assay on MCF7 (setting [36]) is 9.7 µM; with MCF7 (setting [37]), “tde”; in assay [5], 7 µM; in assay [6], 5.5 µM.

The values above are taken from ChEMBL document CHEMBL2040791, “Synthesis of novel 6-(4-substituted piperazine-1-yl)-9-(β-D-ribofuranosyl)purine derivatives, which lead to senescence-induced cell death in liver cancer cells” (J Med Chem, 2012).
